Test system: porcine liver esterase (PLE)
Experiment: HPLC of naproxen release, initial rates, Lineweaver-Burk
Format: biochemical, Sus scrofa
Details: PBS, 5% acetonitrile, 25 °C, 120 IU/mL PLE, 29-91 μM substrate; ester hydrolysis

Which Km does the source give for COc1ccc2cc(C(C)C(=O)Oc3cccc4c3C(=O)c3c(O)cccc3C4)ccc2c1 (stereo not shown) [compound 8, 8-Hydroxy-9-oxo-9,10-dihydroanthracen-1-yl 2-(6-methoxynaphthalen-2-yl)propanoate] here?
Its Km is 65.1 ± 0.99 µM.

— article PMC3834954, “Design, Synthesis and in Vitro Degradation of a Novel Co-Drug for the Treatment of Psoriasis” (Pharmaceutics, 2013)
